Data as given in patent publication US10300049B2, “Myeloid differentiation inducing agents” (CASE WESTERN RESERVE UNIVERSITY, priority 2007, dated 2019).

How the values were obtained:
[1] = system: GABA A receptor; settings: compared with securinine; cited from earlier work
[2] = system: HL-60 cells; assay: NBT reduction assay of differentiation in HL-60 cells; assay type: cell-based, human; settings: for NBT (%): 10 days; for NBT reduction, Decitabine alone (%) / NBT reduction, ATRA alone (%): 4 days
Text: The NBT screen works due to changes in the oxidoreductases during differentiation that lead to increases in rates of NBT reduction. NBT is reduced due to the production of superoxide that is catalyzed by an NADPH oxidase. […] A quantitative NBT reduction assay is ideal for this type of screen as it is simple, sensitive, quantitative, requires minimal cells, has been proven to have low well to well variability, and the amount of reduced NBT is proportional to the number of cells reducing the dye as well as the amount reduced by each cell.
[…] […] Differentiation is determined in the 96 well plates by incubating the cells with 1 mg/ml of NBT and 200 ng/ml of PMA as the stimulant for the respiratory burst for 35 minutes at 37° C. The reaction can then be stopped with HCL and the formazan will be solubilized with DMSO. Finally, the reaction mixture will be read spectrophotometricaly at 560 nm in a plate reader.
[…] […] Differentiation is determined in the 96 well plates by incubating the cells with 1 mg/ml of NBT and 200 ng/ml of PMA as the stimulant for the respiratory burst for 35 minutes at 37° C. The reaction will then be stopped with HCL and the formazan will be solubilized with DMSO. Finally, the reaction mixture will be read spectrophotometricaly at 560 nm in a plate reader.
The assays are done using the colorimetric process. The NBT reduction assay measures the respiratory burst and is done by stimulating the respiratory burst in cells with PMA and then looking for a color change in the NBT dye.

[3] = system: HL-60 subcutaneous tumors; assay: Established HL-60 subcutaneous tumor xenograft in nude mice; assay type: in vivo; settings: 15 mg/kg twice a day
Procedure: Nude mice (5 per experimental group) were injected with 5×10^7 HL-60 cells bilaterally into the flank. 9 days after tumor cell inoculation, the indicated drugs were injected I.P. three times a week for 3 weeks. […] Representative picture of the mice at the end of the study period (B). Representative picture of tumors dissected from the indicated mice. (C). Average weights of tumors dissected from all mice (D).
In order to further assess the in vivo potential of 6BT and Securinine, mouse xenograft experiments were performed. In the first model, the ability of 6BT and Securinine to inhibit established HL-60 subcutaneous leukemic tumor growth in nude mice was assessed. […] In the second model system, the ability of 6BT to prevent either HL-60 or MV-411 tumor formation in nude mice was assessed.
This Example assed the effects of securinine and its analogues in mice. […] HL-60 cell is an AML cell line commonly used for in-vitro studies and typically they are classified as M2 subtype. […] Therefore this was the highest dose that could be safely utilized.
Next we repeated the mouse xenograft experiments using i.p. drug administration (20 mg/kg), but with twice a day dosing again using HL-60 cell tumors.
Securinine (20 mg/kg) or vehicle ([…]) was injected i.p. into mice starting 10 days after HL-60 cell inoculation bilaterally into the flanks of nude mice (5 mice per group).

[4] = system: HL-60 cells; assay: Flow cytometry of CD11b and CD14 cell surface markers; assay type: cell-based, human; settings: 4 days
Procedure: HL-60 cells were treated with the indicated compounds for 4 days, the cells were stained with CD11b-PE and CD14-FITC, and flow cytometric analysis was performed.

[5] = system: HL-60 cells; assay: Cell cycle, propidium iodide flow cytometry; assay type: cell-based, human; settings: 4 days
Procedure: HL-60 cells were treated with the indicated compounds for 4 days and the cells were stained with propidium iodide and analyzed by flow cytometry.

[6] = system: HL-60 cells; assay: Morphology, cytospin with Wright-Giemsa stain; assay type: cell-based, human; settings: 4 days
Procedure: HL-60 cells were treated with the indicated compounds for 4 days. Cytospin preparations were prepared and the cells were stained with Wright-Giemsa stain.

For `O=C1C=C2C=C[C@@H]3C[C@@]2(O1)[C@@H]1CCCCN31` [Allosecurinine, allosecurinine], the “GABA A receptor affinity” value [1] is listed as “decreased GABA A receptor affinity”, the “NBT (%)” value ([2]; 0.06 μM) is listed as 20% and the “NBT (%)” value ([2]; 1.25 μM) is listed as 25%. The “NBT (%)” value ([2]; 2.5 μM) was 40%, the “NBT (%)” value ([2]; 5 μM) was 50% and the “NBT (%)” value ([2]; 10 μM) was 80%.

With `Nc1ncn([C@H]2C[C@H](O)[C@@H](CO)O2)c(=O)n1` [Decitabine, reference compound] the “NBT reduction, Decitabine alone (%)” value ([2]; Decitabine 10 ng/ml) was 14%, the “NBT reduction, Decitabine alone (%)” value ([2]; Decitabine 50 ng/ml) was 23% and the “NBT reduction, Decitabine alone (%)” value ([2]; Decitabine 100 ng/ml) was 26%.

With `CC1=C(/C=C/C(C)=C/C=C/C(C)=C/C(=O)O)C(C)(C)CCC1` [ATRA, all-trans-retinoic acid, reference compound] the “tumor growth compared to vehicle treated mice” value [3] was “did not show any difference in tumor growth”, the CD11b positive ([4]; 1 μM) was 77% and the CD14 positive ([4]; 1 μM) was 8%. For the same compound, the “NBT reduction, ATRA alone (%)” value ([2]; ATRA 3 nM) was 7%, the “NBT reduction, ATRA alone (%)” value ([2]; ATRA 9 nM) was 9% and the “NBT reduction, ATRA alone (%)” value ([2]; ATRA 26 nM) was 16%. For the same compound, the “NBT reduction, ATRA alone (%)” value ([2]; ATRA 80 nM) was 37%, the “NBT reduction, ATRA alone (%)” value ([2]; ATRA 250 nM) was 59% and the “cells differentiated, NBT reduction assay” value ([2]; HL-60 cells, 4 days (FIG. 3)) was about 95%.

For `C=C1/C(=C\C=C2/CCC[C@]3(C)[C@@H]([C@H](C)CCCC(C)(C)O)CC[C@@H]23)C[C@@H](O)C[C@@H]1O` [Vitamin D, 1,25-dihydroxyvitamin D3, reference compound], the CD11b positive ([4]; 100 nM) was 90% and the CD14 positive ([4]; 100 nM) was 65%.

In the case of `Cc1cc(O)nc2cc3oc4ccccc4c3cc12` [Compound 375, 4-methyl[1]benzofuro[3,2-g]quinolin-2-ol], the “cell cycle phase in which cells accumulate” value [5] was “accumulation in G2/M”, the CD11b positive ([4]; 10 μM) was 64% and the CD14 positive ([4]; 10 μM) was 19%. The morphologic changes [6] was “reproducible, but less pronounced changes”.

In the case of `O=C1C=C2C=C[C@H]3C[C@]2(O1)[C@@H]1CCCCN13` [Virosecurinine, virosecurinine], the “GABA A receptor affinity” value [1] is listed as “decreased GABA A receptor affinity”, the “NBT (%)” value ([2]; 0.06 μM) is listed as 20% and the “NBT (%)” value ([2]; 1.25 μM) is listed as 30%. For the same compound, the “NBT (%)” value ([2]; 2.5 μM) was 50%, the “NBT (%)” value ([2]; 5 μM) was 99% and the “NBT (%)” value ([2]; 10 μM) was 95%.
